{"source": "patent US9486447B2", "about": "“Compositions and methods for controlling neuronal excitation” (The General Hospital Corporation, priority 2011, dated 2016)", "assay_in_all_cases": "NIMH PDSP binding assay", "conditions_in_all_cases": "primary screening, mean of N = 4 determinations", "key": {"[1]": {"target": "T1, M1 (Homo sapiens, UniProt P11229)", "T1 construct": "NIMH PDSP", "T1 sequence (P11229 whole entry)": "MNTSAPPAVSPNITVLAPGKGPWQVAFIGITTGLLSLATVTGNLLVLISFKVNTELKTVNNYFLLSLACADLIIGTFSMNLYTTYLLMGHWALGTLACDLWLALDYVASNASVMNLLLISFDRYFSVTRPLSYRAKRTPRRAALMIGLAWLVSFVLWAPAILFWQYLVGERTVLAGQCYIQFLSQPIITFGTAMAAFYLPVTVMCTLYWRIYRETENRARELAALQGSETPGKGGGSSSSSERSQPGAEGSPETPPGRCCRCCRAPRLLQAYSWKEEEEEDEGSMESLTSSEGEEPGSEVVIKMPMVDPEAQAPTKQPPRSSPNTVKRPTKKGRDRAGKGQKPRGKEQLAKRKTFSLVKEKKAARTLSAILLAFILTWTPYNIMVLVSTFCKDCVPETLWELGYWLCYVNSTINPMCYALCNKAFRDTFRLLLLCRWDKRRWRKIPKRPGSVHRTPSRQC", "excerpt": "(§1) To determine if optovin's mechanism of action could be predicted via behavioral profiling^30,32, optovin's behavioral profile was compared to the behavioral profiles of 700 annotated neuroactive compounds tested in triplicate. These compounds include ligands targeting the adrenergic, serotonergic, histaminergic, dopaminergic, cholinergic and glutamatergic pathways. […] To gain insight into optovin's mechanism of action, optovin and two active optovin analogs were profiled using the National Institutes of Mental Health Psychoactive Drug Screening Program (NIMH PDSP) to determine their activities against a panel of human and rodent CNS receptors, channels and transporters.\n(§2) Activity determinations were generously provided by the National Institute of Mental Health's Psychoactive Drug Screening Program, Contract # HHSN-271-2008-00025-C(NIMH PDSP). Complete assay details are found on-line at: http://pdsp.med.unc.edu/UNC-CH %20Protocol %20Book.pdf"}, "[2]": {"target": "T2, NET (Homo sapiens, UniProt P23975)", "T2 construct": "NIMH PDSP", "excerpt": "as §1, §2"}, "[3]": {"target": "T3, M5 (Homo sapiens, UniProt P08912)", "T3 construct": "NIMH PDSP", "excerpt": "as §1, §2"}, "[4]": {"target": "PBR (Rattus norvegicus, UniProt P16257)", "excerpt": "as §1, §2"}, "[5]": {"target": "T4, DAT (Homo sapiens, UniProt Q01959)", "T4 construct": "NIMH PDSP", "excerpt": "as §1, §2"}, "[6]": {"target": "5-ht1e (Homo sapiens, UniProt P28566)", "excerpt": "as §1, §2"}, "[7]": {"target": "5-HT2C (Homo sapiens, UniProt P28335)", "excerpt": "as §1, §2"}, "[8]": {"target": "A2B2 (Rattus norvegicus, UniProt P12389+P12390)", "excerpt": "as §1, §2"}, "[9]": {"target": "T5, D3 (Homo sapiens, UniProt P35462)", "T5 construct": "NIMH PDSP", "excerpt": "as §1, §2"}, "[10]": {"target": "A4B2 (Rattus norvegicus, UniProt P09483+P12390)", "sequence (P09483 31-630)": "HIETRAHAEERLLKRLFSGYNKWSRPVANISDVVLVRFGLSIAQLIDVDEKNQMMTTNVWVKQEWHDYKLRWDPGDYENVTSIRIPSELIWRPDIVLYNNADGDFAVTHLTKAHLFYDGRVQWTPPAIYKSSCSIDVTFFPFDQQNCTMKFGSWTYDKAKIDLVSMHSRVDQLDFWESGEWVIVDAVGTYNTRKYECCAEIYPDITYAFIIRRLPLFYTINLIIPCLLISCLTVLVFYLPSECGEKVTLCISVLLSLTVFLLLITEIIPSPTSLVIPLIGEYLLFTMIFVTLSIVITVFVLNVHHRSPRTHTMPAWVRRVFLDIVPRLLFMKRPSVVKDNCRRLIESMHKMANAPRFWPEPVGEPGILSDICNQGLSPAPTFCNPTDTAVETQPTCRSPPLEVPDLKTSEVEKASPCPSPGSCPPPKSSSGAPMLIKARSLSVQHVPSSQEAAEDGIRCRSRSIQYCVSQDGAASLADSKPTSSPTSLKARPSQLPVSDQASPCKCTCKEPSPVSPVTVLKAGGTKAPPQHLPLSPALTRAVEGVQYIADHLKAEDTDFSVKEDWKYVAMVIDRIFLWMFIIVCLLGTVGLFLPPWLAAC", "sequence (P12390 25-500)": "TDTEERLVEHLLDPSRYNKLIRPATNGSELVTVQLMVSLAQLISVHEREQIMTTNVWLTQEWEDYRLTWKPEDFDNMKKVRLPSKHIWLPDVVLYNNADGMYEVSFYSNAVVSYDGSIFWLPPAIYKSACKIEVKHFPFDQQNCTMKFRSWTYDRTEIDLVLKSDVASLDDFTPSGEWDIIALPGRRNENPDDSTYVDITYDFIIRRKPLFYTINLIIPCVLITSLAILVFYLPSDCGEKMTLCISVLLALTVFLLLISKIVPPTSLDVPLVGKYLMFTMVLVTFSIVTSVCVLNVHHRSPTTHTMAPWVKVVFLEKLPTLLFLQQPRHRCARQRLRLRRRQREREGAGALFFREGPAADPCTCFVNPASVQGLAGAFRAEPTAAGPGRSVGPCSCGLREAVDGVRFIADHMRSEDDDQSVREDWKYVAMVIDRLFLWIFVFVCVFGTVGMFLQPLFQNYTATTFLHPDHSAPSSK", "excerpt": "as §1, §2"}, "[11]": {"target": "5-HT3 (Homo sapiens, UniProt P46098)", "excerpt": "as §1, §2"}, "[12]": {"target": "5-HT2B (Homo sapiens, UniProt P41595)", "excerpt": "as §1, §2"}, "[13]": {"target": "T6, KOR (Homo sapiens, UniProt P41145)", "T6 construct": "NIMH PDSP", "excerpt": "as §1, §2"}, "[14]": {"target": "5-HT7 (Homo sapiens, UniProt P34969)", "excerpt": "as §1, §2"}, "[15]": {"target": "Sigma 2 (Rattus norvegicus, UniProt Q5U3Y7)", "excerpt": "as §1, §2"}, "[16]": {"system": "Sigma 1", "excerpt": "as §1, §2"}, "[17]": {"target": "5-HT6 (Homo sapiens, UniProt P50406)", "excerpt": "as §1, §2"}, "[18]": {"target": "Alpha2B (Homo sapiens, UniProt P18089)", "excerpt": "as §1, §2"}, "[19]": {"target": "T7, H2 (Homo sapiens, UniProt P25021)", "T7 construct": "NIMH PDSP", "excerpt": "as §1, §2"}, "[20]": {"target": "A2B4 (Rattus norvegicus, UniProt P12389+P12392)", "excerpt": "as §1, §2"}, "[21]": {"target": "Alpha1B (Homo sapiens, UniProt P35368)", "sequence (P35368 whole entry)": "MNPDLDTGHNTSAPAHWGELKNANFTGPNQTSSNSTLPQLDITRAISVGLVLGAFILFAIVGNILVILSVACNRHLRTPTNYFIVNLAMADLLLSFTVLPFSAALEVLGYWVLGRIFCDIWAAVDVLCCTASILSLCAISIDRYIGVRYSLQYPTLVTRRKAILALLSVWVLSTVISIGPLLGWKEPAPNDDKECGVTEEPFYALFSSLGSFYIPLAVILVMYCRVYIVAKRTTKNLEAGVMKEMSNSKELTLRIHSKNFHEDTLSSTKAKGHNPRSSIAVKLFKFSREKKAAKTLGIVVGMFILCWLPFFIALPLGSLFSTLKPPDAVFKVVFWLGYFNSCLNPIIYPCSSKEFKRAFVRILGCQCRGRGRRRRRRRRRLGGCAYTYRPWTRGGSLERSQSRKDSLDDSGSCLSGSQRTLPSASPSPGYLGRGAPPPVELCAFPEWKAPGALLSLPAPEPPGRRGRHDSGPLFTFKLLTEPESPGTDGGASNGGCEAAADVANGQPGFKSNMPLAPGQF", "excerpt": "as §1, §2"}, "[22]": {"target": "T8, M4 (Homo sapiens, UniProt P08173)", "T8 construct": "NIMH PDSP", "excerpt": "as §1, §2"}, "[23]": {"target": "T9, D2 (Homo sapiens, UniProt P14416)", "T9 construct": "NIMH PDSP", "excerpt": "as §1, §2"}, "[24]": {"target": "A3B2 (Rattus norvegicus, UniProt P04757+P12390)", "sequence (P04757 26-499)": "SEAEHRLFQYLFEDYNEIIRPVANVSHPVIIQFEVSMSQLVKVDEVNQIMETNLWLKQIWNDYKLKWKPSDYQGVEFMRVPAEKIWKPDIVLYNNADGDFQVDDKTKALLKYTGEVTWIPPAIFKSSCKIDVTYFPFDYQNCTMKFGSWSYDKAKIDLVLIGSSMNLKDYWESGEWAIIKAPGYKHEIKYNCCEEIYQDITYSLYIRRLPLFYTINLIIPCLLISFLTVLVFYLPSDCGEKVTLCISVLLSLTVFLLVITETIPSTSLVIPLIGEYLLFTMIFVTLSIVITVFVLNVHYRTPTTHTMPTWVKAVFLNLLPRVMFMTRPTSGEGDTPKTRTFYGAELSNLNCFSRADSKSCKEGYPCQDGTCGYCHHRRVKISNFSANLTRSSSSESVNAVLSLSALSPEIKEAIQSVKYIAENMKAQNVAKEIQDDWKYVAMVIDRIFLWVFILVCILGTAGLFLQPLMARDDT", "sequence (P12390 25-500)": "as the sequence (P12390 25-500) above", "excerpt": "as §1, §2"}, "[25]": {"target": "T10, D1 (Homo sapiens, UniProt P21728)", "T10 construct": "NIMH PDSP", "excerpt": "as §1, §2"}, "[26]": {"target": "A3B4 (Rattus norvegicus, UniProt P04757+P12392)", "sequence (P04757 26-499)": "as the sequence (P04757 26-499) above", "sequence (P12392 21-495)": "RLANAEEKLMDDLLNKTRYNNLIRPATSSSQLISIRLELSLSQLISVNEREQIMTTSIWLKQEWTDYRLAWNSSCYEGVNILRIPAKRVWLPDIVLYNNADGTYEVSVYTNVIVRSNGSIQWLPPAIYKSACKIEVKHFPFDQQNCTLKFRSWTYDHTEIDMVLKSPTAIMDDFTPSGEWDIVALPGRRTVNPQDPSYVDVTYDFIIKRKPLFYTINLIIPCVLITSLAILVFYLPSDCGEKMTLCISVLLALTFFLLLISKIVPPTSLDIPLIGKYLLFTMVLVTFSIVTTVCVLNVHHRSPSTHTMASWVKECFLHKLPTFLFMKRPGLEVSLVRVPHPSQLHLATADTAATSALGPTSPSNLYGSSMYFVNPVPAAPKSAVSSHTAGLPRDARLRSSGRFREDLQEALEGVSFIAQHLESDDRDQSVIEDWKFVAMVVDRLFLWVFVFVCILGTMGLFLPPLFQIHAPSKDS", "excerpt": "as §1, §2"}, "[27]": {"target": "T11, MOR (Homo sapiens, UniProt P35372)", "T11 construct": "NIMH PDSP", "excerpt": "as §1, §2"}, "[28]": {"target": "Alpha1A (Homo sapiens, UniProt P35348)", "excerpt": "as §1, §2"}, "[29]": {"system": "GABAA", "excerpt": "as §1, §2"}, "[30]": {"target": "T12, DOR (Homo sapiens, UniProt P41143)", "T12 construct": "NIMH PDSP", "excerpt": "as §1, §2"}, "[31]": {"target": "T13, D5 (Homo sapiens, UniProt P21918)", "T13 construct": "NIMH PDSP", "T13 sequence (P21918 whole entry)": "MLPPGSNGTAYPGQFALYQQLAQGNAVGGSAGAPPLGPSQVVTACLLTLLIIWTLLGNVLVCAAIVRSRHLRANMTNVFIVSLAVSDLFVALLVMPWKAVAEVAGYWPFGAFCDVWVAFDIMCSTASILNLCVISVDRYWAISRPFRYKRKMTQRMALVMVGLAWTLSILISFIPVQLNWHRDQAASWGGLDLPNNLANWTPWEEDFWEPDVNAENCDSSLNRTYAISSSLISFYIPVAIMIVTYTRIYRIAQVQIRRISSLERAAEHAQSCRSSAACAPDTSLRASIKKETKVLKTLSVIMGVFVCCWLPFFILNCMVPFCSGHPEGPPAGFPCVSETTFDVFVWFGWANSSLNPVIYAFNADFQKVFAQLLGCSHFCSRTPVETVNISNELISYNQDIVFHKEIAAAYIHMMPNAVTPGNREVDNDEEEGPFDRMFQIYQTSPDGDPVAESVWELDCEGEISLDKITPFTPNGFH", "excerpt": "as §1, §2"}, "[32]": {"target": "5-HT1D (Homo sapiens, UniProt P28221)", "sequence (P28221 whole entry, species assumed)": "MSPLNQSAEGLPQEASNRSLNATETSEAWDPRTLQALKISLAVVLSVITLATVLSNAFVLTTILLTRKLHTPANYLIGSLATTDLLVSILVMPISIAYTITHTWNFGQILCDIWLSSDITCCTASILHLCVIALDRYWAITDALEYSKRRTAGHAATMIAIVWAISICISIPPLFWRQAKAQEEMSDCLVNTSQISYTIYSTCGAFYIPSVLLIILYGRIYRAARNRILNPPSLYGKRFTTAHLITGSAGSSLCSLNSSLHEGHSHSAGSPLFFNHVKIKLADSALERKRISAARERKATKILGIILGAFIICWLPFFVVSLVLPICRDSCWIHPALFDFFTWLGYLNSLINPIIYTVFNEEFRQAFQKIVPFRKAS", "excerpt": "as §1, §2"}, "[33]": {"system": "BZP Rat Brain Site", "excerpt": "as §1, §2"}, "[34]": {"target": "Alpha2C (Homo sapiens, UniProt P18825)", "excerpt": "as §1, §2"}, "[35]": {"target": "5-ht5a (Homo sapiens, UniProt P47898)", "excerpt": "as §1, §2"}, "[36]": {"target": "Alpha1D (Homo sapiens, UniProt P25100)", "excerpt": "as §1, §2"}, "[37]": {"target": "T14, Beta2 (Homo sapiens, UniProt P07550)", "T14 construct": "NIMH PDSP", "T14 sequence (P07550 whole entry)": "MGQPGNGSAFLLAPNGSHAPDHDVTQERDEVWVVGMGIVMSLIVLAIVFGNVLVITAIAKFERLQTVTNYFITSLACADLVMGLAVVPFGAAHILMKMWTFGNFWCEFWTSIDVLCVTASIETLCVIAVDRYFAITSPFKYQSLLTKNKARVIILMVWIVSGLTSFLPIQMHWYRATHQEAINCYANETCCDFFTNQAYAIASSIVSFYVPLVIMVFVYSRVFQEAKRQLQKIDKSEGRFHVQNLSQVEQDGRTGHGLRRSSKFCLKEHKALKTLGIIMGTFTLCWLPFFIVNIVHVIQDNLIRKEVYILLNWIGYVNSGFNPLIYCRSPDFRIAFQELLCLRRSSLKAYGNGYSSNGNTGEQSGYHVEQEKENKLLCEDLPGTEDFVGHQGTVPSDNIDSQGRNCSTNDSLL", "excerpt": "as §1, §2"}, "[38]": {"target": "T15, Beta3 (Homo sapiens, UniProt P13945)", "T15 construct": "NIMH PDSP", "excerpt": "as §1, §2"}, "[39]": {"target": "5-HT1B (Homo sapiens, UniProt P28222)", "excerpt": "as §1, §2"}, "[40]": {"target": "T16, M3 (Homo sapiens, UniProt P20309)", "T16 construct": "NIMH PDSP", "T16 sequence (P20309 whole entry)": "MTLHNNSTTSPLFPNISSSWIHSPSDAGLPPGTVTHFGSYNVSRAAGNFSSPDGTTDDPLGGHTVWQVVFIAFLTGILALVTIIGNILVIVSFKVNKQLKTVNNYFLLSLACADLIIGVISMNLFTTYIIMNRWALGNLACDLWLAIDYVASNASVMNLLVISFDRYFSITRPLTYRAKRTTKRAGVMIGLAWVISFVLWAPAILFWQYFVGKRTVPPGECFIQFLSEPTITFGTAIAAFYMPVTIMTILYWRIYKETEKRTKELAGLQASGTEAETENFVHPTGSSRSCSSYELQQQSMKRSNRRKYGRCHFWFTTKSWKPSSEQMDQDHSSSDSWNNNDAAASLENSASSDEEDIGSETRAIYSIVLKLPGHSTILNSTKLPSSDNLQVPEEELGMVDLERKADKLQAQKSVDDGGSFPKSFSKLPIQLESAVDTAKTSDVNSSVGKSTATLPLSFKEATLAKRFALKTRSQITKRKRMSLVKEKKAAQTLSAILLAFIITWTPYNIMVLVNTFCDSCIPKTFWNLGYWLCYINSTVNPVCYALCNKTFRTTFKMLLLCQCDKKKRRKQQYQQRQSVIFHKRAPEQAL", "excerpt": "as §1, §2"}, "[41]": {"target": "T17, M2 (Homo sapiens, UniProt P08172)", "T17 construct": "NIMH PDSP", "excerpt": "as §1, §2"}}, "note": "Several values for one entry are separate records, joined by “and”; a condition that tells them apart may be missing. Identical values can stand only once.", "data": [{"smiles": "Cc1cc(/C=C2/SC(=S)NC2=O)c(C)n1-c1cccnc1", "note": "[optovin]", "values": [{"measurement": "Avg % inhibition (M1)", "setting": "[1]", "value": "32.9% and 16.9%"}, {"measurement": "Avg % inhibition (NET)", "setting": "[2]", "value": "−1.3", "unit": "%"}, {"measurement": "Avg % inhibition (M5)", "setting": "[3]", "value": 3.7, "unit": "%"}, {"measurement": "Avg % inhibition (PBR)", "setting": "[4]", "value": "−11.3", "unit": "%"}, {"measurement": "Avg % inhibition (DAT)", "setting": "[5]", "value": 1.5, "unit": "%"}, {"measurement": "Avg % inhibition (5-ht1e)", "setting": "[6]", "value": "−21.5", "unit": "%"}, {"measurement": "Avg % inhibition (5-HT2C)", "setting": "[7]", "value": 7.0, "unit": "%"}, {"measurement": "Avg % inhibition (A2B2)", "setting": "[8]", "value": "−19.2", "unit": "%"}, {"measurement": "Avg % inhibition (D3)", "setting": "[9]", "value": 34.3, "unit": "%"}, {"measurement": "Avg % inhibition (A4B2)", "setting": "[10]", "value": "−26.8", "unit": "%"}, {"measurement": "Avg % inhibition (A4B2**)", "setting": "[10]", "value": "−29.1", "unit": "%"}, {"measurement": "Avg % inhibition (5-HT3)", "setting": "[11]", "value": "−1.7", "unit": "%"}, {"measurement": "Avg % inhibition (5-HT2B)", "setting": "[12]", "value": "−2.0", "unit": "%"}, {"measurement": "Avg % inhibition (KOR)", "setting": "[13]", "value": 10.9, "unit": "%"}, {"measurement": "Avg % inhibition (5-HT7)", "setting": "[14]", "value": "−0.8", "unit": "%"}, {"measurement": "Avg % inhibition (Sigma 2)", "setting": "[15]", "value": 16.0, "unit": "%"}, {"measurement": "Avg % inhibition (Sigma 1)", "setting": "[16]", "value": "−13.7", "unit": "%"}, {"measurement": "Avg % inhibition (5-HT6)", "setting": "[17]", "value": "−16.5", "unit": "%"}, {"measurement": "Avg % inhibition (Alpha2B)", "setting": "[18]", "value": 8.9, "unit": "%"}, {"measurement": "Avg % inhibition (H2)", "setting": "[19]", "value": 41.1, "unit": "%"}, {"measurement": "Avg % inhibition (A2B4)", "setting": "[20]", "value": "−7.8", "unit": "%"}, {"measurement": "Avg % inhibition (Alpha1B)", "setting": "[21]", "value": 7.2, "unit": "%"}, {"measurement": "Avg % inhibition (M4)", "setting": "[22]", "value": 3.5, "unit": "%"}, {"measurement": "Avg % inhibition (D2)", "setting": "[23]", "value": "−6.8", "unit": "%"}, {"measurement": "Avg % inhibition (A3B2)", "setting": "[24]", "value": "−5.6", "unit": "%"}, {"measurement": "Avg % inhibition (D1)", "setting": "[25]", "value": 9.0, "unit": "%"}, {"measurement": "Avg % inhibition (A3B4)", "setting": "[26]", "value": "−12.5", "unit": "%"}, {"measurement": "Avg % inhibition (MOR)", "setting": "[27]", "value": "−0.7", "unit": "%"}, {"measurement": "Avg % inhibition (Alpha1A)", "setting": "[28]", "value": "−5.4", "unit": "%"}, {"measurement": "Avg % inhibition (GABAA)", "setting": "[29]", "value": "−2.2", "unit": "%"}, {"measurement": "Avg % inhibition (DOR)", "setting": "[30]", "value": "−7.2", "unit": "%"}, {"measurement": "Avg % inhibition (D5)", "setting": "[31]", "value": 13.6, "unit": "%"}, {"measurement": "Avg % inhibition (5-HT1D)", "setting": "[32]", "value": 12.9, "unit": "%"}, {"measurement": "Avg % inhibition (BZP Rat Brain Site)", "setting": "[33]", "value": 5.3, "unit": "%"}, {"measurement": "Avg % inhibition (Alpha2C)", "setting": "[34]", "value": 3.3, "unit": "%"}, {"measurement": "Avg % inhibition (5-ht5a)", "setting": "[35]", "value": "−17.7", "unit": "%"}, {"measurement": "Avg % inhibition (Alpha1D)", "setting": "[36]", "value": 30.4, "unit": "%"}, {"measurement": "Avg % inhibition (Beta2)", "setting": "[37]", "value": "−3.8", "unit": "%"}, {"measurement": "Avg % inhibition (Beta3)", "setting": "[38]", "value": 20.2, "unit": "%"}, {"measurement": "Avg % inhibition (5-HT1B)", "setting": "[39]", "value": 11.8, "unit": "%"}, {"measurement": "Avg % inhibition (M3)", "setting": "[40]", "value": 9.1, "unit": "%"}, {"measurement": "Avg % inhibition (M2)", "setting": "[41]", "value": 6.6, "unit": "%"}]}]}
